What was measured:
MTX antibodies [1] = assay: Specificity in absence of MTX, cross-reactivity (MTX Assay); format: binding, rabbit; conditions: Trimethoprim 150 μmol/L, Triamterene 25 μmol/L; for % Cross-reactivity: no MTX
[2] = MTX Assay calibration curve (homogeneous enzyme immunoassay, Beckman AU680); format: biochemical
Experimental: The top clones (281H3/28K1, 321H1/32K2 and 64H1/64K1) were selected based on performance for larger scale production and purification (Table 5). These clones were then used for further studies. To make the initial antibody reagent, both clones were diluted to 100 μg/mL with antibody diluent. Then a 1:4 ratio mixture of […] to Clone 64H1/64K1 was made and spiked into antibody diluent. […]
The MTX Assay calibration range is from 0.00 to 1.30 μM. Calibration curves were generated on the Beckman AU680 by assaying each calibrator level in quadruplicate. The Beckman AU680 analyzer performs the nonlinear data analysis automatically using multi-parameter curve-fit math model. Typical calibrator separations are shown for the MTX Assay in Table 6. […] The calculation for feasibility lot percent modulation is shown below: • Max Rate=640.3 mA/min. • Negative Calibrator Rate=358.5 mA/min. • High Calibrator Rate (1.30 μM)=608.7 mA/min. • Total Curve ΔmA=High Cal. Rate−Negative Cal.

[3] = cited from earlier work
MTX antibodies [4] = assay: Specificity in absence of MTX, cross-reactivity (MTX Assay); format: binding, rabbit; conditions: no MTX
Text: “Cross-reactivity” refers to the reaction of an antibody with an antigen that was not used to induce that antibody. “Cross-reactivity” may be determined in a quantitative immunoassay by establishing a standard curve using known dilutions of the target analyte. The standard curve is then used to calculate the apparent concentration of the interfering substance present in various known amounts in samples assayed under similar condition. The cross-reactivity is the apparent concentration divided by the actual concentration multiplied by 100.
[…] Solvent controls were also prepared and tested.
Cross-reactivity with DAMPA was also tested DAMPA stock solution was spiked into negative serum pool without the presence of MTX.

[5] = single dose; within 15 minutes; cited from earlier work

## Nc1nc(N)c2nc(-c3ccccc3)c(N)nc2n1 [Triamterene]
MTX antibodies [1]
  No MTX Mean: 0.009 µmol/L
  % Cross-reactivity: 0.03%

## CN(Cc1cnc2nc(N)nc(N)c2n1)c1ccc(C(=O)N[C@@H](CCC(=O)O)C(=O)O)cc1 [MTX, (2S)-2-[[4-[(2,4-diaminopteridin-6-yl)methyl-methylamino]benzoyl]amino]pentanedioic acid]
[2]; 0.00-0.05 μM
  Calibration curve separation: 21.5 mA/min
[2]; 0.00-1.30 μM
  Calibration curve separation: 250.2 mA/min
[2]; 0.05-0.15 μM
  Calibration curve separation: 44.9 mA/min
[2]; 0.15-0.35 μM
  Calibration curve separation: 79.7 mA/min
[2]; 0.35-0.65 μM
  Calibration curve separation: 61.0 mA/min
[2]; 0.65-1.30 μM
  Calibration curve separation: 43.1 mA/min
[2]; Calibrator Conc. 0.00 μM
  Calibrator rate: 358.5 mA/min
[2]; Calibrator Conc. 0.05 μM
  Calibrator rate: 380.0 mA/min
[2]; Calibrator Conc. 0.15 μM
  Calibrator rate: 424.8 mA/min
[2]; Calibrator Conc. 0.35 μM
  Calibrator rate: 504.6 mA/min
[2]; Calibrator Conc. 0.65 μM
  Calibrator rate: 565.6 mA/min
[2]; Calibrator Conc. 1.30 μM
  Calibrator rate: 608.7 mA/min
[3]; following a 4-hour infusion, pediatric patients with osteosarcoma
  MTX serum concentration reached: up to 3100 μmol/L
[3]; high dose therapy for osteosarcoma
  MTX serum concentration: exceed 1000 μmol/L
[3]; osteosarcoma, 72 hours
  MTX decay curve level: less than 0.3 μmol/L

## COc1cc(Cc2cnc(N)nc2N)cc(OC)c1OC [Trimethoprim]
MTX antibodies [1]
  No MTX Mean: 0.000 µmol/L
  % Cross-reactivity: 0.00%

## CN(Cc1cnc2nc(N)nc(N)c2n1)c1ccc(C(=O)O)cc1 [DAMPA, 4-(((2,4-diaminopteridin-6-yl)methyl)(methyl)amino)benzoic acid]
MTX antibodies [4]; DAMPA 0.04 μmol/L in negative serum pool
  Apparent Conc.: 0.023 µmol/L
MTX antibodies [4]; DAMPA 0.04 μmol/L
  % Cross-reactivity: 57.50%
MTX antibodies [4]; DAMPA 0.10 μmol/L in negative serum pool
  Apparent Conc.: 0.052 µmol/L
MTX antibodies [4]; DAMPA 0.10 μmol/L
  % Cross-reactivity: 51.50%
MTX antibodies [4]; DAMPA 0.50 μmol/L in negative serum pool
  Apparent Conc.: 0.215 µmol/L
MTX antibodies [4]; DAMPA 0.50 μmol/L
  % Cross-reactivity: 42.93%
MTX antibodies [4]; DAMPA 0.80 μmol/L in negative serum pool
  Apparent Conc.: 0.187 µmol/L
MTX antibodies [4]; DAMPA 0.80 μmol/L
  % Cross-reactivity: 23.42%
MTX antibodies [4]; DAMPA 1.00 μmol/L in negative serum pool
  Apparent Conc.: 0.188 µmol/L
MTX antibodies [4]; DAMPA 1.00 μmol/L
  % Cross-reactivity: 18.80%

B1: glucarpidase: antidote that converts MTX into DAMPA and glutamate (protein, UniProt P06621 23-415, looked up)
Carboxypeptidase G2: ALAQKRDNVLFQAATDEQPAVIKTLEKLVNIETGTGDAEGIAAAGNFLEAELKNLGFTVTRSKSAGLVVGDNIVGKIKGRGGKNLLLMSHMDTVYLKGILAKAPFRVEGDKAYGPGIADDKGGNAVILHTLKLLKEYGVRDYGTITVLFNTDEEKGSFGSRDLIQEEAKLADYVLSFEPTSAGDEKLSLGTSGIAYVQVNITGKASHAGAAPELGVNALVEASDLVLRTMNIDDKAKNLRFNWTIAKAGNVSNIIPASATLNADVRYARNEDFDAAMKTLEERAQQKKLPEADVKVIVTRGRPAFNAGEGGKKLVDKAVAYYKEAGGTLGVEERTGGGTDAAYAALSGKPVIESLGLPGFGYHSDKAEYVDISAIPRRLYMAARLIMDLGAGK
[5]
  reduction of plasma MTX concentrations: ≥ 97%

Reference: patent US12163955B2, “Antibodies to methotrexate and uses thereof” (Ark Diagnostics, Inc., priority 2023, dated 2024)
